# Measurements published in US10023590B2, “Substituted pyridine compounds having herbicidal activity” (BASF SE, priority 2014, dated 2018).
# Where two headings read alike, the source gives them in different places.
# Legend:
# Assay type in all cases: in vivo
# [1] = system: Abutilon theophrasti; test: Greenhouse post-emergence herbicidal activity, ABUTH
# Excerpt: (§1) The culture containers used were plastic flowerpots containing loamy sand with approximately 3.0% of humus as the substrate. The seeds of the test plants were sown separately for each species.
# (§2) For the post-emergence treatment, the test plants were first grown to a height of 3 to 15 cm, depending on the plant habit, and only then treated with the active ingredients which had been suspended or emulsified in water. For this purpose, the test plants were either sown directly and grown in the same containers, or they were first grown separately as seedlings and transplanted into the test containers a few days prior to treatment.
# (§3) Depending on the species, the plants were kept at 10-25° C. or 20-35° C., respectively.
# (§4) The test period extended over 2 to 4 weeks. During this time, the plants were tended, and their response to the individual treatments was evaluated.
# (§5) Evaluation was carried out using a scale from 0 to 100. 100 means no emergence of the plants, or complete destruction of at least the aerial moieties, and 0 means no damage, or normal course of growth. A good herbicidal activity is given at values of at least 70 and a very good herbicidal activity is given at values of at least 85.
# [2] = system: Amaranthus retroflexus; test: Greenhouse post-emergence herbicidal activity, AMARE; conditions: for pest or weed control at 31 g/ha: 0.031 kg/ha; for pest or weed control at 125 g/ha: 0.125 kg/ha
# Procedure, shortened: (§6)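 Damage was rated on a 0-100 scale, where 100 means full kill of aerial parts or no emergence, after a 2-4 week trial at species-dependent 10-25° C or 20-35° C. Compounds, suspended or emulsified in water, were sprayed once plants in humus-containing loamy sand had reached 3-15 cm.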
# [3] = system: Brachiaria decumbens; test: Greenhouse post-emergence herbicidal activity, BRADC; conditions: 0.125 kg/ha, scale 0 to 100
# Excerpt: as §1, §2, §3, §4, §5
# [4] = system: Capsella bursa-pastoris; test: Greenhouse post-emergence herbicidal activity, CAPBP; conditions: scale 0 to 100
# Excerpt: as §1, §2, §3, §4, §5
# [5] = system: Cirsium arvense; test: Greenhouse post-emergence herbicidal activity, CIRAR
# Excerpt: as §1, §2, §3, §4, §5
# [6] = system: Echinocloa crus-galli; test: Greenhouse post-emergence herbicidal activity, ECHCG; conditions: Echinochloa crus-galli
# Procedure, shortened: as §6
# [7] = system: Kochia scoparia; test: Greenhouse post-emergence herbicidal activity, KCHSC; conditions: scale 0 to 100
# Excerpt: as §1, §2, §3, §4, §5
# [8] = system: Polygonum persicaria; test: Greenhouse post-emergence herbicidal activity, POLPE; conditions: 0.031 kg/ha, scale 0 to 100
# Excerpt: as §1, §2, §3, §4, §5
# [9] = system: Stellaria media; test: Greenhouse post-emergence herbicidal activity, STEME; conditions: scale 0 to 100
# Excerpt: as §1, §2, §3, §4, §5
# [10] = system: Zea mays; test: Greenhouse post-emergence herbicidal activity on crop ZEAMX (corn, maize); parameters: key: 0 = no damage/normal growth, 100 = no emergence or complete destruction; conditions: ZEAMX (corn, crop), scale 0 to 100
# Procedure, shortened: as §6
# [11] = system: Brachiaria deflexa; test: Greenhouse post-emergence herbicidal activity, BRADE; conditions: 0.031 kg/ha, scale 0 to 100
# Excerpt: as §1, §2, §3, §4, §5
# [12] = system: Chenopodium album; test: Greenhouse post-emergence herbicidal activity, CHEAL; conditions: scale 0 to 100; for pest or weed control at 31 g/ha: 0.031 kg/ha; for pest or weed control at 63 g/ha: 0.063 kg/ha; for pest or weed control at 125 g/ha: 0.125 kg/ha
# Procedure, shortened: as §6
# [13] = system: Eriochloa villosa; test: Greenhouse post-emergence herbicidal activity, ERBVI; conditions: 0.063 kg/ha, scale 0 to 100
# Excerpt: as §1, §2, §3, §4, §5
# [14] = system: Setaria viridis; test: Greenhouse post-emergence herbicidal activity, SETVI; conditions: 2 kg/ha, scale 0 to 100
# Excerpt: as §1, §2, §3, §4, §5
# [15] = system: Commelina benghalensis; test: Greenhouse post-emergence herbicidal activity, COMBE; conditions: 0.125 kg/ha, scale 0 to 100
# Excerpt: as §1, §2, §3, §4, §5
# [16] = system: Oryza sativa; test: Greenhouse post-emergence herbicidal activity on crop ORYSA (rice); conditions: ORYSA (rice, crop), scale 0 to 100
# Procedure, shortened: as §6
# [17] = system: Ambrosia artemisiifolia; test: Greenhouse post-emergence herbicidal activity, AMBEL; conditions: scale 0 to 100
# Excerpt: as §1, §2, §3, §4, §5
# [18] = system: Ipomoea hederacea; test: Greenhouse post-emergence herbicidal activity, IPOHE; conditions: 0.031 kg/ha, scale 0 to 100
# Excerpt: as §1, §2, §3, §4, §5
# [19] = system: Veronica arvensis; test: Greenhouse post-emergence herbicidal activity, VERAR; conditions: 0.25 kg/ha, scale 0 to 100
# Excerpt: as §1, §2, §3, §4, §5
# [20] = ECHCG, 2 kg/ha, scale 0 to 100, read-out: Herbicidal activity
# [21] = CIRAR, 0.063 kg/ha, scale 0 to 100, read-out: Herbicidal activity
Compound,Herbicidal activity ([4]; 0.125 kg/ha),Herbicidal activity ([7]; 0.063 kg/ha),Herbicidal activity ([10]; 0.063 kg/ha),"pest or weed control at 31 g/ha ([2]; AMARE, scale 0 to 100)","pest or weed control at 125 g/ha ([2]; AMARE, scale 0 to 100)",pest or weed control at 31 g/ha [12],"pest or weed control at 2000 g/ha [6, 20]",Herbicidal activity [14],Herbicidal activity ([10]; 0.031 kg/ha),Herbicidal activity ([10]; 0.125 kg/ha),pest or weed control at 63 g/ha [12],pest or weed control at 125 g/ha [12],"pest or weed control at 63 g/ha [5, 21]",Herbicidal activity ([16]; 0.125 kg/ha),also measured
"CN(c1c(Cl)ccc(C2=C(O)c3ncccc3C(C)(C)S2(=O)=O)c1Cl)S(C)(=O)=O [I-2, N-[2,6-dichloro-3-(8-hydroxy-5,5-dimethyl-6,6-dioxo-thiopyrano[4,3-b]pyridin-7-yl)phenyl]-N-methyl-methanesulfonamide]",100,98,5,,,,,,,,,,,,pest or weed control at 2000 g/ha ([1]; read-out: Herbicidal activity): 100%; pest or weed control at 2000 g/ha ([2]; read-out: Herbicidal activity): 100%; Herbicidal activity [3]: 100; pest or weed control at 63 g/ha ([5]; read-out: Herbicidal activity): 98%; pest or weed control at 2000 g/ha ([6]; read-out: Herbicidal activity): 100%; Herbicidal activity ([7]; 0.031 kg/ha): 95; Herbicidal activity ([7]; 0.125 kg/ha): 100; Herbicidal activity [8]: 98; Herbicidal activity ([9]; 0.031 kg/ha): 100; Herbicidal activity ([9]; 0.063 kg/ha): 100
"CCN(c1c(Cl)ccc(C2=C(O)c3ncccc3C(C)(C)S2(=O)=O)c1Cl)S(C)(=O)=O [I-9, N-[2,6-dichloro-3-(8-hydroxy-5,5-dimethyl-6,6-dioxo-thiopyrano[4,3-b]pyridin-7-yl)phenyl]-N-ethyl-methanesulfonamide]",,100,10,98%,98%,98%,100%,100,5,50,,,,,"pest or weed control at 2000 g/ha ([1]; ABUTH, 2 kg/ha, scale 0 to 100, read-out: Herbicidal activity): 98%; pest or weed control at 63 g/ha ([2]; AMARE, 0.063 kg/ha, scale 0 to 100): 98%; Herbicidal activity [11]: 100; pest or weed control at 125 g/ha ([5]; CIRAR, 0.125 kg/ha, scale 0 to 100): 100%; pest or weed control at 125 g/ha ([6]; ECHCG, 0.125 kg/ha, scale 0 to 100): 98%; Herbicidal activity [13]: 98"
"CC(C)N(c1c(Cl)ccc(C2=C(O)c3ncccc3C(C)(C)S2(=O)=O)c1Cl)S(C)(=O)=O [I-11, N-[2,6-dichloro-3-(8-hydroxy-5,5-dimethyl-6,6-dioxo-thiopyrano[4,3-b]pyridin-7-yl)phenyl]-N-isopropyl-methanesulfonamide]",100,,,,,98%,100%,100,0,,98%,100%,95%,20,"pest or weed control at 2000 g/ha ([2]; AMARE, 2 kg/ha, scale 0 to 100, read-out: Herbicidal activity): 100%; Herbicidal activity ([4]; 0.031 kg/ha): 98; Herbicidal activity ([4]; 0.063 kg/ha): 100; pest or weed control at 31 g/ha ([5]; CIRAR, 0.031 kg/ha, scale 0 to 100): 90%; Herbicidal activity [15]: 100"
"CN(c1cccc(C2=C(OC(=O)C(C)(C)C)c3ncccc3C(C)(C)S2(=O)=O)c1Cl)S(C)(=O)=O [I-16, [7-[2-chloro-3-[methyl(methylsulfonyl)amino]phenyl]-5,5-dimethyl-6,6-dioxo-thiopyrano[4,3-b]pyridin-8-yl] 2,2-dimethylpropanoate]",,,0,75%,90%,95%,,,0,0,98%,98%,85%,0,Herbicidal activity ([17]; 0.063 kg/ha): 100; Herbicidal activity ([17]; 0.125 kg/ha): 100; Herbicidal activity ([17]; 0.25 kg/ha): 100; pest or weed control at 250 g/ha ([12]; 0.25 kg/ha): 100%; Herbicidal activity [18]: 70; Herbicidal activity ([16]; 0.031 kg/ha): 0; Herbicidal activity ([16]; 0.063 kg/ha): 0; Herbicidal activity ([16]; 0.25 kg/ha): 0; Herbicidal activity [19]: 100
